In ChEMBL document CHEMBL1141151, “High-affinity epidermal growth factor receptor (EGFR) irreversible inhibitors with diminished chemical reactivities as positron emission tomography (PET)-imaging agent candidates of EGFR overexpressing tumors” (J Med Chem, 2005):

Assays:
[1] = biological target: T1, Epidermal growth factor receptor (Homo sapiens, UniProt P00533); experiment: (§1) Inhibition of EGF Receptor autophosphorylation in A431 cell lysate
[2] = biological target: Platelet-derived growth factor receptor (Homo sapiens, UniProt P09619+P16234); experiment: Inhibition of human PDGFR kinase in intact NIHPDGFR cells; type: cell-based
[3] = biological target: T1, Epidermal growth factor receptor; experiment: as §1; remark: listed apart in the source
[4] = biological target: T1, Epidermal growth factor receptor; experiment: as §1; remark: listed apart in the source
[5] = biological target: T2, Receptor tyrosine-protein kinase erbB-2 (Homo sapiens, UniProt P04626); experiment: Inhibition of HER2 kinase in intact CSH12 cells; Range = 25-50 nM; type: cell-based
[6] = biological target: T1, Epidermal growth factor receptor; conditions: a-431
Description: Inhibition of EGF Receptor autophosphorylation in A431 cell lysate; Range = 10000-50000 nM

[7] = biological target: T2, Receptor tyrosine-protein kinase erbB-2; experiment: Inhibition of HER2 kinase in intact CSH12 cells; type: cell-based

T1 sequence (P00533 whole entry): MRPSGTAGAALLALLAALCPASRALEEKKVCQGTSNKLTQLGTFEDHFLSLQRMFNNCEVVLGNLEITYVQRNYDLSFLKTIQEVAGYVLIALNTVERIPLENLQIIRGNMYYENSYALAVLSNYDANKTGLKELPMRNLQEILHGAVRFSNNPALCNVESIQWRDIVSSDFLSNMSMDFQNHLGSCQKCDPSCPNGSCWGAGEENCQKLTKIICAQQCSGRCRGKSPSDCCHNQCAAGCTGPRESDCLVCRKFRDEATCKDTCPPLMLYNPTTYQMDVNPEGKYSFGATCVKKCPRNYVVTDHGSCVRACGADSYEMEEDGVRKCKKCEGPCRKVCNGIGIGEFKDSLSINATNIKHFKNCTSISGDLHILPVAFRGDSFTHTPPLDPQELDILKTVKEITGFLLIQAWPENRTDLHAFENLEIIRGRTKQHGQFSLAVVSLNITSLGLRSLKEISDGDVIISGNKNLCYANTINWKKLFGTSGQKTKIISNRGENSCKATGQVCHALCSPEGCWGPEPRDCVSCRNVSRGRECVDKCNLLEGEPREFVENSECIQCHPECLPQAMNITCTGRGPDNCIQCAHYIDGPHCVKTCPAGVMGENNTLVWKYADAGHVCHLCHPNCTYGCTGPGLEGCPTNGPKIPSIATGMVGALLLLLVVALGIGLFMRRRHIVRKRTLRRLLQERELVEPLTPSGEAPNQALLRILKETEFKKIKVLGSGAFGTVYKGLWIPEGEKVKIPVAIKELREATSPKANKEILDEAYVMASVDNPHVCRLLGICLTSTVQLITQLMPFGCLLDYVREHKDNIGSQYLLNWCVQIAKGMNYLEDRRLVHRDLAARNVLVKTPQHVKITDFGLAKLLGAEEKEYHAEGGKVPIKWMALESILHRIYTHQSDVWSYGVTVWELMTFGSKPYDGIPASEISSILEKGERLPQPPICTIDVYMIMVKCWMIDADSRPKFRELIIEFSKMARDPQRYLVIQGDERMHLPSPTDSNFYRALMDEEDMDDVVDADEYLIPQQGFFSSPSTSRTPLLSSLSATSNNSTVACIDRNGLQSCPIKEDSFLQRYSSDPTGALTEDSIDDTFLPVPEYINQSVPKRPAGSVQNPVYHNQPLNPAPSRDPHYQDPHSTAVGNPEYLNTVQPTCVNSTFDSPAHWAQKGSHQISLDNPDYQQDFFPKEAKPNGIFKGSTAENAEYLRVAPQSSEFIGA
T2 sequence (P04626 whole entry): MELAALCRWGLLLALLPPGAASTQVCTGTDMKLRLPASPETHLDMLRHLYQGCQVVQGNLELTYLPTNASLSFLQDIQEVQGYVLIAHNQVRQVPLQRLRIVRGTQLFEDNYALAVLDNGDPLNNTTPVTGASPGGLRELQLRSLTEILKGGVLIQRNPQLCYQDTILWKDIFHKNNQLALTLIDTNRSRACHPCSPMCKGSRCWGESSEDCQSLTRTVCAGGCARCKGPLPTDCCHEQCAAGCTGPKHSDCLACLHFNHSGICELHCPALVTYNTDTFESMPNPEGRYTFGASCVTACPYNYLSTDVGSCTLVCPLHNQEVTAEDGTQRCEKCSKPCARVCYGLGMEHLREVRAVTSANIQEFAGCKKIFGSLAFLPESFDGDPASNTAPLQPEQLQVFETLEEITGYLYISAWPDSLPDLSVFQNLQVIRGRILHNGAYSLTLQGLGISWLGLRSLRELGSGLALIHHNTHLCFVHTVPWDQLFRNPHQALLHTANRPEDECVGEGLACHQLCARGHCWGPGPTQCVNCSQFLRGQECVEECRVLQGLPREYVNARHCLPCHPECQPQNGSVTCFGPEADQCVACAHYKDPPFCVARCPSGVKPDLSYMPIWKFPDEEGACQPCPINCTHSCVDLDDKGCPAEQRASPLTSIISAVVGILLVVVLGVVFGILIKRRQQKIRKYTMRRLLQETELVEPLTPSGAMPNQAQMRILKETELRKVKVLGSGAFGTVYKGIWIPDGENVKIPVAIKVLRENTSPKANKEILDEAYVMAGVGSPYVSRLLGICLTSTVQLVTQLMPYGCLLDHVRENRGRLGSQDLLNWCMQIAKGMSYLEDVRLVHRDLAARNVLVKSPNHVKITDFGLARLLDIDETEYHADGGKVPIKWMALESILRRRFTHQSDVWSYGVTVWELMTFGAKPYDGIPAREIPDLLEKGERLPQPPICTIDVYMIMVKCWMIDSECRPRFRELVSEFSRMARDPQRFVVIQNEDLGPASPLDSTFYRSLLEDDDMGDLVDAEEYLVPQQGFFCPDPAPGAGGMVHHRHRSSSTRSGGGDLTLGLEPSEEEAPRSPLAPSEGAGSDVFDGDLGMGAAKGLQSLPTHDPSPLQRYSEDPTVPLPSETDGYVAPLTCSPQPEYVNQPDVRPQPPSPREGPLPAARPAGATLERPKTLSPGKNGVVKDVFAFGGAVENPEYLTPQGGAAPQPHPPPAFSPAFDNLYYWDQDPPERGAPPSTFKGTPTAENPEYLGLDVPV

| Structure (SMILES) | IC50 [1] [nM] | IC50 [2] [nM] | IC50 [3] [nM] | other results |
| --- | --- | --- | --- | --- |
| C=CC(=O)Nc1cc2c(Nc3cccc(Br)c3)ncnc2cc1N1CCN(C)CC1 | > 500 |  |  |  |
| CN(C)C/C=C/C(=O)Nc1ccc2ncnc(Nc3cc(Cl)c(Cl)cc3F)c2c1 |  | > 1000 |  |  |
| COc1cc2ncnc(Nc3cc(Cl)c(Cl)cc3F)c2cc1OC |  |  | 0.208 |  |
| COCC(=O)Nc1ccc2ncnc(Nc3cccc(I)c3)c2c1 | 50000 |  | 150 |  |
| C=CC(=O)Nc1cc2c(Nc3cc(Cl)c(Cl)cc3F)ncnc2cc1N1CCN(C)CC1 | > 500 |  | 6000 | IC50 [4]: 250 nM |
| CN(C)C/C=C/C(=O)Nc1ccc2ncnc(Nc3cccc(I)c3)c2c1 | < 5 |  | 0.94 | IC50 [4]: < 5 nM |
| O=C(CCl)Nc1ccc2ncnc(Nc3cc(Cl)c(Cl)cc3F)c2c1 |  | > 1000 | 0.07 | IC50 [5]: 50 nM |
| COCC(=O)Nc1ccc2ncnc(Nc3cc(Cl)c(Cl)cc3F)c2c1 |  | > 1000 | 252 | IC50 [6]: 50000 nM; IC50 [7]: > 500 nM |
